Measured values from ChEMBL document CHEMBL4251615, “Discovery of anilino-furo[2,3-d]pyrimidine derivatives as dual inhibitors of EGFR/HER2 tyrosine kinase and their anticancer activity” (Eur J Med Chem, 2018).

What was measured:
HCC 2998 = assay: Growth inhibition of human HCC2998 cells assessed as cell growth at 10 uM incubated for 48 hrs by sulforhodamine B assay relative to control; type: functional; conditions: HCC 2998, 48 h, read-out: Activity
MCF7 = assay: Growth inhibition of human MCF7 cells assessed as cell growth at 10 uM incubated for 48 hrs by sulforhodamine B assay relative to control; type: functional; conditions: MCF7, 48 h, read-out: Activity
HCT-116 = assay: Growth inhibition of human HCT116 cells assessed as cell growth at 10 uM incubated for 48 hrs by sulforhodamine B assay relative to control; type: functional; conditions: HCT-116, 48 h, read-out: Activity
SK-MEL-2 = assay: Growth inhibition of human SK-MEL-2 cells assessed as cell growth at 10 uM incubated for 48 hrs by sulforhodamine B assay relative to control; type: functional; conditions: SK-MEL-2, 48 h, read-out: Activity
HOP-92 = assay: Growth inhibition of human HOP92 cells assessed as cell growth at 10 uM incubated for 48 hrs by sulforhodamine B assay relative to control; type: functional; conditions: HOP-92, 48 h, read-out: Activity
MDA-MB-231 = assay: Growth inhibition of human MDA-MB-231 cells assessed as cell growth at 10 uM incubated for 48 hrs by sulforhodamine B assay relative to control; type: functional; conditions: MDA-MB-231, 48 h, read-out: Activity
SW-620 = assay: Growth inhibition of human SW620 cells assessed as cell growth at 10 uM incubated for 48 hrs by sulforhodamine B assay relative to control; type: functional; conditions: SW-620, 48 h, read-out: Activity
UO-31 = assay: Growth inhibition of human UO31 cells assessed as cell growth at 10 uM incubated for 48 hrs by sulforhodamine B assay relative to control; type: functional; conditions: UO-31, 48 h, read-out: Activity
[1] = biological target: Receptor tyrosine-protein kinase erbB-2 (Homo sapiens) (UniProt P04626); assay: Inhibition of recombinant human N-terminal GST-tagged HER2 (679 to 1255 residues) expressed in baculovirus infected Sf9 cells at 10 uM using poly[Glu:Tyr] (4:1) as substrate after 40 mins by Kinase-Glo plus luminescence assay relative to control
Chain of Receptor tyrosine-protein kinase erbB-2 (Homo sapiens) (P04626 whole entry, the tested form may be a part): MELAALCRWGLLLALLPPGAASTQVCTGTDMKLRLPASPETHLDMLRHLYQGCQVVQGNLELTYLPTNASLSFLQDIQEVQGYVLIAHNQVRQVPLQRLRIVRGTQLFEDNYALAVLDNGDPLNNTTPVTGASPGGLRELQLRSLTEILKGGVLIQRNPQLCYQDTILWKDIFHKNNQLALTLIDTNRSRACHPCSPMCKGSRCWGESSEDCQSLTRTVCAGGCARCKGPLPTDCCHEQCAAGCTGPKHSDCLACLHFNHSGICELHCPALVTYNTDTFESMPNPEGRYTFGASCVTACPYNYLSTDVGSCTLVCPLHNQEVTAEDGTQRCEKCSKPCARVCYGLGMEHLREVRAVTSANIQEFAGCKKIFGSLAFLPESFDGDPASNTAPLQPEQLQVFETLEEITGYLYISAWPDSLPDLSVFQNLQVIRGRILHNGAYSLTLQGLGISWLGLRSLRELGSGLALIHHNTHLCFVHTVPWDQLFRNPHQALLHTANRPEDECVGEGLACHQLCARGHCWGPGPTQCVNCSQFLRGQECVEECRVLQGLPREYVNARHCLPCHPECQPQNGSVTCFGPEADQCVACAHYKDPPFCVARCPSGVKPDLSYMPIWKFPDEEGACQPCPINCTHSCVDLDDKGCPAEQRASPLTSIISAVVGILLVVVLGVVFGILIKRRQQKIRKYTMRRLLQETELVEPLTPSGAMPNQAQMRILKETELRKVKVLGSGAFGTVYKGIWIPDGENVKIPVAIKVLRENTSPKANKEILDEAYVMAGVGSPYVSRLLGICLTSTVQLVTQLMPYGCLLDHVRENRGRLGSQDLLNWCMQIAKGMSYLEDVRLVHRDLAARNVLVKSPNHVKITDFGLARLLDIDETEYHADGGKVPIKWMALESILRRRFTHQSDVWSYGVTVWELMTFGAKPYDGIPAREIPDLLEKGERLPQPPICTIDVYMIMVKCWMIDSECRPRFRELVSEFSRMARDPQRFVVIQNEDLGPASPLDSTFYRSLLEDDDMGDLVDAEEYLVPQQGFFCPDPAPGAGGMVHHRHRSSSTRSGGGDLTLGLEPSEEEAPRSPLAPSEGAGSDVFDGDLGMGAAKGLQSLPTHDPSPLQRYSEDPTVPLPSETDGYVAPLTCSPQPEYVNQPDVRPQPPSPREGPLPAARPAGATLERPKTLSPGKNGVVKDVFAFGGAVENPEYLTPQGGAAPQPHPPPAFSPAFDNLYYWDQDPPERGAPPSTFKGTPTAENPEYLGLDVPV

SK-MEL-28 = assay: Growth inhibition of human SK-MEL-28 cells assessed as cell growth at 10 uM incubated for 48 hrs by sulforhodamine B assay relative to control; type: functional; conditions: SK-MEL-28, 48 h, read-out: Activity
CAKI-1 = assay: Growth inhibition of human Caki1 cells assessed as cell growth at 10 uM incubated for 48 hrs by sulforhodamine B assay relative to control; type: functional; conditions: CAKI-1, 48 h, read-out: Activity
TK-10 = assay: Growth inhibition of human TK10 cells assessed as cell growth at 10 uM incubated for 48 hrs by sulforhodamine B assay relative to control; type: functional; conditions: TK-10, 48 h, read-out: Activity
CCRF-CEM = assay: Growth inhibition of human CCRF-CEM cells assessed as cell growth at 10 uM incubated for 48 hrs by sulforhodamine B assay relative to control; type: functional; conditions: read-out: Activity
SNB-75 = assay: Growth inhibition of human SNB75 cells assessed as cell growth at 10 uM incubated for 48 hrs by sulforhodamine B assay relative to control; type: functional; conditions: SNB-75, 48 h, read-out: Activity
M14 = assay: Growth inhibition of human M14 cells assessed as cell growth at 10 uM incubated for 48 hrs by sulforhodamine B assay relative to control; type: functional; conditions: M14, 48 h, read-out: Activity
RXF 393 = assay: Growth inhibition of human RXF393 cells assessed as cell growth at 10 uM incubated for 48 hrs by sulforhodamine B assay relative to control; type: functional; conditions: RXF 393, 48 h, read-out: Activity
SF-268 = assay: Growth inhibition of human SF268 cells assessed as cell growth at 10 uM incubated for 48 hrs by sulforhodamine B assay relative to control; type: functional; conditions: SF-268, 48 h, read-out: Activity
HT-29 = assay: Growth inhibition of human HT-29 cells assessed as cell growth at 10 uM incubated for 48 hrs by sulforhodamine B assay relative to control; type: functional; conditions: HT-29, 48 h, read-out: Activity
SF-295 = assay: Growth inhibition of human SF295 cells assessed as cell growth at 10 uM incubated for 48 hrs by sulforhodamine B assay relative to control; type: functional; conditions: SF-295, 48 h, read-out: Activity
NCI-H322M = assay: Growth inhibition of human NCI-H322M cells assessed as cell growth at 10 uM incubated for 48 hrs by sulforhodamine B assay relative to control; type: functional; conditions: read-out: Activity
Malme-3M = assay: Growth inhibition of human MALME-3M cells assessed as cell growth at 10 uM incubated for 48 hrs by sulforhodamine B assay relative to control; type: functional; conditions: read-out: Activity
RPMI-8226 = assay: Growth inhibition of human RPMI8226 cells assessed as cell growth at 10 uM incubated for 48 hrs by sulforhodamine B assay relative to control; type: functional; conditions: RPMI-8226, 48 h, read-out: Activity
A498 = assay: Growth inhibition of human A498 cells assessed as cell growth at 10 uM incubated for 48 hrs by sulforhodamine B assay relative to control; type: functional; conditions: A498, 48 h, read-out: Activity
SF-539 = assay: Growth inhibition of human SF539 cells assessed as cell growth at 10 uM incubated for 48 hrs by sulforhodamine B assay relative to control; type: functional; conditions: SF-539, 48 h, read-out: Activity
HCT-15 = assay: Growth inhibition of human HCT15 cells assessed as cell growth at 10 uM incubated for 48 hrs by sulforhodamine B assay relative to control; type: functional; conditions: HCT-15, 48 h, read-out: Activity
MDA-MB-468 = assay: Growth inhibition of human MDA-MB-468 cells assessed as cell growth at 10 uM incubated for 48 hrs by sulforhodamine B assay relative to control; type: functional; conditions: MDA-MB-468, 48 h, read-out: Activity
NCI-H226 = assay: Growth inhibition of human NCI-H226 cells assessed as cell growth at 10 uM incubated for 48 hrs by sulforhodamine B assay relative to control; type: functional; conditions: NCI-H226, 48 h, read-out: Activity

SMILES	growth at 10 µM (HCC 2998)	growth at 10 µM (MCF7)	growth at 10 µM (HCT-116)	growth at 10 µM (SK-MEL-2)	growth at 10 µM (HOP-92)	growth at 10 µM (MDA-MB-231)	growth at 10 µM (SW-620)	growth at 10 µM (UO-31)	growth at 10 µM (SK-MEL-28)	growth at 10 µM (CAKI-1)	growth at 10 µM (TK-10)	growth at 10 µM (CCRF-CEM)	growth at 10 µM (SNB-75)	growth at 10 µM (M14)	growth at 10 µM (RXF 393)	growth at 10 µM (SF-268)	growth at 10 µM (HT-29)	growth at 10 µM (SF-295)	growth at 10 µM (NCI-H322M)	growth at 10 µM (Malme-3M)	other results
CCOC(=O)c1c(C)oc2ncnc(Nc3ccc(OCc4ccc(Cl)c(Cl)c4)cc3)c12	109%	106%	94.5%	103%	116%	84.3%	105%	98.4%	102%	96.1%	88.5%	110%	102%	101%	101%	104%	99.7%	94.7%	97.9%	131%	inhibition [1]: 13%; growth at 10 µM (RPMI-8226): 117%; growth at 10 µM (A498): 92.3%; growth at 10 µM (SF-539): 98.4%; growth at 10 µM (HCT-15): 104%; growth at 10 µM (MDA-MB-468): 96.5%; growth at 10 µM (NCI-H226): 94.4%
Cc1cccc(Nc2ncnc3oc(C)c(C(=O)NCCO)c23)c1	99.4%	94.8%	93%	113%	94.1%	84.1%	96%	86.2%	102%	87.2%	102%	74%	110%	103%	81.1%	98.4%	99.8%	96.3%	95%	109%	growth at 10 µM (RPMI-8226): 95.7%; growth at 10 µM (A498): 74.7%; growth at 10 µM (SF-539): 92.5%; growth at 10 µM (HCT-15): 93.7%; growth at 10 µM (MDA-MB-468): 87%; growth at 10 µM (NCI-H226): 93.3%
Cc1oc2ncnc(Nc3ccc(OCc4cccc(F)c4)c(Cl)c3)c2c1C(=O)NCCO	79.1%	62.9%	64.9%	78.5%	41.9%	26%	93.4%	57.6%	50.6%	74.2%	74.7%	89.5%	40.5%	66.9%	60%	47.2%	73%	49.5%	86.3%	52.3%	inhibition [1]: 6%; growth at 10 µM (RPMI-8226): 70.2%; growth at 10 µM (A498): 81.6%; growth at 10 µM (SF-539): 47.4%; growth at 10 µM (HCT-15): 61.1%; growth at 10 µM (MDA-MB-468): 57.4%; growth at 10 µM (NCI-H226): 40.8%
Cc1oc2ncnc(Nc3cccc(F)c3)c2c1C(=O)O	102%	97.6%	103%	107%	89.3%	85%	101%	92.7%	103%	93.8%	105%	110%	85.8%	112%	115%	96.3%	110%	98.7%	109%	107%	growth at 10 µM (RPMI-8226): 107%; growth at 10 µM (A498): 90.5%; growth at 10 µM (SF-539): 92.5%; growth at 10 µM (HCT-15): 101%; growth at 10 µM (MDA-MB-468): 104%; growth at 10 µM (NCI-H226): 109%
